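Test compounds were applied to cells in 96-well plates for 48 hours at 5 doses. TGI: total growth inhibition.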
What was measured:
Test in all cases: NCI tumour cell line growth inhibition, 48 h
SN12C renal = system: SN12C renal
OVCAR-8 ovarian = system: OVCAR-8 ovarian
UACC-257 melanoma = system: UACC-257 melanoma
A498 renal = system: A498 renal
SK-MEL-5 melanoma = system: SK-MEL-5 melanoma
SK-MEL-28 melanoma = system: SK-MEL-28 melanoma
K-562 leukemia = system: K-562 leukemia
CAKI-1 renal = system: CAKI-1 renal
NCI-H460 lung = system: NCI-H460 lung
SF-295 CNS = system: SF-295 CNS
TK-10 renal = system: TK-10 renal
HOP-62 NSCLC = system: HOP-62 NSCLC
MOLT-4 leukemia = system: MOLT-4 leukemia
SW-620 colon = system: SW-620 colon
RPMI-8226 leukemia = system: RPMI-8226 leukemia
HCC-2998 colon = system: HCC-2998 colon
SNB-75 CNS = system: SNB-75 CNS
MALME-3M melanoma = system: MALME-3M melanoma
UO-31 renal = system: UO-31 renal
ACHN renal = system: ACHN renal
IGROV1 ovarian = system: IGROV1 ovarian
HT29 colon = system: HT29 colon
SK-MEL-2 melanoma = system: SK-MEL-2 melanoma
COLO 205 colon = system: COLO 205 colon
SK-OV-3 ovarian = system: SK-OV-3 ovarian
SNB-19 CNS = system: SNB-19 CNS
UACC-62 melanoma = system: UACC-62 melanoma
OVCAR-3 ovarian = system: OVCAR-3 ovarian
786-0 renal = system: 786-0 renal
OVCAR-5 ovarian = system: OVCAR-5 ovarian
M14 melanoma = system: M14 melanoma
KM20L2 colon = system: KM20L2 colon
U251 CNS = system: U251 CNS
SF-268 CNS = system: SF-268 CNS
CCRF-CEM leukemia = system: CCRF-CEM leukemia
EKVX NSCLC = system: EKVX NSCLC
SF-539 CNS = system: SF-539 CNS
HCT-15 colon = system: HCT-15 colon
XF 498 CNS = system: XF 498 CNS
A549 NSCLC = system: A549 NSCLC
NCI-H23 lung = system: NCI-H23 lung
HCT-116 colon = system: HCT-116 colon
NCI-H522 lung = system: NCI-H522 lung
KM12 colon = system: KM12 colon
RXF 393 renal = system: RXF 393 renal
NCI/ADR-RES ovarian = system: NCI/ADR-RES ovarian
MCF7 breast = system: MCF7 breast
NCI-H226 lung = system: NCI-H226 lung
T-47D breast = system: T-47D breast
OVCAR-4 ovarian = system: OVCAR-4 ovarian
HL-60(TB) leukemia = system: HL-60(TB) leukemia
BT-549 breast = system: BT-549 breast
SR leukemia = system: SR leukemia
HS 578T breast = system: HS 578T breast
DU-145 prostate = system: DU-145 prostate
LOX IMVI melanoma = system: LOX IMVI melanoma
MDA-N = system: MDA-N
HOP-92 NSCLC = system: HOP-92 NSCLC
MDA-MB-231 breast = system: MDA-MB-231 breast
PC-3 prostate = system: PC-3 prostate
MDA-MB-435 = system: MDA-MB-435
M19-MEL melanoma = system: M19-MEL melanoma
DMS 114 small cell lung = system: DMS 114 small cell lung
LXFL 529 NSCLC = system: LXFL 529 NSCLC

Nc1ccccc1Nc1ccccc1C(=O)[O-].Nc1ccccc1Nc1ccccc1C(=O)[O-].[Zn+2]
TGI (SN12C renal): > 100 µM | TGI (OVCAR-8 ovarian): > 100 µM | TGI (UACC-257 melanoma): > 100 µM | TGI (A498 renal): > 100 µM | TGI (SK-MEL-5 melanoma): > 100 µM | TGI (SK-MEL-28 melanoma): > 100 µM | TGI (K-562 leukemia): > 100 µM | TGI (CAKI-1 renal): > 100 µM | TGI (NCI-H460 lung): > 100 µM | TGI (SF-295 CNS): > 100 µM | TGI (TK-10 renal): > 100 µM | TGI (HOP-62 NSCLC): > 100 µM | TGI (MOLT-4 leukemia): > 100 µM | TGI (SW-620 colon): > 100 µM | TGI (RPMI-8226 leukemia): > 100 µM | TGI (HCC-2998 colon): > 100 µM | TGI (SNB-75 CNS): 49.1 µM | TGI (MALME-3M melanoma): > 100 µM | TGI (UO-31 renal): > 100 µM | TGI (ACHN renal): > 100 µM | TGI (IGROV1 ovarian): > 100 µM | TGI (HT29 colon): > 100 µM | TGI (SK-MEL-2 melanoma): 43.2 µM | TGI (COLO 205 colon): > 100 µM | TGI (SK-OV-3 ovarian): > 100 µM | TGI (SNB-19 CNS): > 100 µM | TGI (UACC-62 melanoma): 68.2 µM | TGI (OVCAR-3 ovarian): 61 µM | TGI (786-0 renal): > 100 µM | TGI (OVCAR-5 ovarian): > 100 µM | TGI (M14 melanoma): > 100 µM | TGI (KM20L2 colon): > 100 µM | TGI (U251 CNS): > 100 µM | TGI (SF-268 CNS): > 100 µM | TGI (CCRF-CEM leukemia): > 100 µM | TGI (EKVX NSCLC): > 100 µM | TGI (SF-539 CNS): > 100 µM | TGI (HCT-15 colon): > 100 µM | TGI (XF 498 CNS): 78.7 µM | TGI (A549 NSCLC): > 100 µM | TGI (NCI-H23 lung): > 100 µM | TGI (HCT-116 colon): > 100 µM | TGI (NCI-H522 lung): 44.4 µM | TGI (KM12 colon): > 100 µM

CCCCNc1nc2ccccc2c2c1ncn2CC(C)C
TGI (SN12C renal): > 100 µM | TGI (RXF 393 renal): > 100 µM | TGI (OVCAR-8 ovarian): > 100 µM | TGI (UACC-257 melanoma): > 100 µM | TGI (A498 renal): > 100 µM | TGI (SK-MEL-5 melanoma): > 100 µM | TGI (NCI/ADR-RES ovarian): > 100 µM | TGI (SK-MEL-28 melanoma): > 100 µM | TGI (MCF7 breast): > 100 µM | TGI (K-562 leukemia): > 100 µM | TGI (CAKI-1 renal): > 100 µM | TGI (NCI-H226 lung): > 100 µM | TGI (T-47D breast): > 100 µM | TGI (OVCAR-4 ovarian): > 100 µM | TGI (NCI-H460 lung): > 100 µM | TGI (SF-295 CNS): > 100 µM | TGI (TK-10 renal): > 100 µM | TGI (HOP-62 NSCLC): > 100 µM | TGI (MOLT-4 leukemia): > 100 µM | TGI (SW-620 colon): > 100 µM | TGI (RPMI-8226 leukemia): > 100 µM | TGI (HL-60(TB) leukemia): > 100 µM | TGI (HCC-2998 colon): > 100 µM | TGI (BT-549 breast): > 100 µM | TGI (SNB-75 CNS): > 100 µM | TGI (MALME-3M melanoma): > 100 µM | TGI (SR leukemia): > 100 µM | TGI (UO-31 renal): > 100 µM | TGI (ACHN renal): > 100 µM | TGI (IGROV1 ovarian): > 100 µM | TGI (HT29 colon): > 100 µM | TGI (SK-MEL-2 melanoma): > 100 µM | TGI (HS 578T breast): > 100 µM | TGI (DU-145 prostate): > 100 µM | TGI (COLO 205 colon): > 100 µM | TGI (LOX IMVI melanoma): > 100 µM | TGI (SK-OV-3 ovarian): > 100 µM | TGI (SNB-19 CNS): > 100 µM | TGI (UACC-62 melanoma): > 100 µM | TGI (OVCAR-3 ovarian): > 100 µM | TGI (786-0 renal): > 100 µM | TGI (MDA-N): > 100 µM | TGI (OVCAR-5 ovarian): > 100 µM | TGI (M14 melanoma): > 100 µM | TGI (HOP-92 NSCLC): > 100 µM | TGI (U251 CNS): > 100 µM | TGI (SF-268 CNS): > 100 µM | TGI (MDA-MB-231 breast): > 100 µM | TGI (CCRF-CEM leukemia): > 100 µM | TGI (EKVX NSCLC): > 100 µM | TGI (PC-3 prostate): > 100 µM | TGI (SF-539 CNS): > 100 µM | TGI (HCT-15 colon): > 100 µM | TGI (A549 NSCLC): > 100 µM | TGI (NCI-H23 lung): > 100 µM | TGI (HCT-116 colon): > 100 µM | TGI (NCI-H522 lung): > 100 µM | TGI (KM12 colon): > 100 µM | TGI (MDA-MB-435): > 100 µM

O=C1C(Cl)N(c2cccc(Cl)c2)C1c1c[nH]c2ccccc12 (stereo not drawn)
TGI (SN12C renal): > 100 µM | TGI (RXF 393 renal): > 100 µM | TGI (OVCAR-8 ovarian): > 100 µM | TGI (UACC-257 melanoma): > 100 µM | TGI (SK-MEL-5 melanoma): > 100 µM | TGI (SK-MEL-28 melanoma): > 100 µM | TGI (K-562 leukemia): > 100 µM | TGI (OVCAR-4 ovarian): > 100 µM | TGI (M19-MEL melanoma): > 100 µM | TGI (NCI-H460 lung): > 100 µM | TGI (SF-295 CNS): > 100 µM | TGI (TK-10 renal): > 100 µM | TGI (DMS 114 small cell lung): > 100 µM | TGI (HOP-62 NSCLC): > 100 µM | TGI (MOLT-4 leukemia): > 100 µM | TGI (SW-620 colon): > 100 µM | TGI (RPMI-8226 leukemia): > 100 µM | TGI (LXFL 529 NSCLC): > 100 µM | TGI (HL-60(TB) leukemia): > 100 µM | TGI (SNB-75 CNS): > 100 µM | TGI (MALME-3M melanoma): > 100 µM | TGI (SR leukemia): > 100 µM | TGI (UO-31 renal): > 100 µM | TGI (IGROV1 ovarian): > 100 µM | TGI (HT29 colon): > 100 µM | TGI (SK-MEL-2 melanoma): > 100 µM | TGI (COLO 205 colon): > 100 µM | TGI (SK-OV-3 ovarian): > 100 µM | TGI (SNB-19 CNS): > 100 µM | TGI (UACC-62 melanoma): > 100 µM | TGI (OVCAR-3 ovarian): > 100 µM | TGI (M14 melanoma): > 100 µM | TGI (HOP-92 NSCLC): > 100 µM | TGI (KM20L2 colon): > 100 µM | TGI (U251 CNS): > 100 µM | TGI (SF-268 CNS): > 100 µM | TGI (CCRF-CEM leukemia): > 100 µM | TGI (EKVX NSCLC): > 100 µM | TGI (SF-539 CNS): > 100 µM | TGI (XF 498 CNS): > 100 µM | TGI (A549 NSCLC): > 100 µM | TGI (NCI-H23 lung): > 100 µM | TGI (HCT-116 colon): > 100 µM | TGI (NCI-H522 lung): > 100 µM | TGI (KM12 colon): > 100 µM
